Measured values published in publication PMC8233162, “Structural characterization of two solute-binding proteins for N,N′-diacetylchitobiose/N,N′,N′′-triacetylchitotoriose of the gram-positive bacterium, Paenibacillus sp. str. FPU-7” (Journal of Structural Biology: X, 2021).
Like-named read-outs stand apart in the source and are kept apart here.

Legend:
Type in all cases: binding, Paenibacillus sp. FPU-7
[1] = biological target: T1, NagB2; assay: SPR (Biacore X100), crystal structure at […] Å, DSF
T1 construct: recombinant without signal peptide (Met1 to Ala20), C-terminal LEHHHHHH

[2] = biological target: T2, NagB1; assay: SPR (Biacore X100), crystal structure at […] Å, DSF
T2 construct: recombinant without Met1–Ser21 signal peptide and Cys22–Phe48 (starts at Thr49), C-terminal LEHHHHHH

[3] = biological target: T2, NagB1; assay: SPR (Biacore X100), DSF
[4] = biological target: T1, NagB2; assay: SPR (Biacore X100), crystal structure at […] Å, DSF; remark: listed apart in the source

How did the Kd [1] turn out when CC(=O)N[C@H]1[C@H](O[C@H]2[C@H](O)[C@@H](NC(C)=O)C(O)O[C@@H]2CO)O[C@H](CO)[C@@H](O)[C@@H]1O (stereo partly shown) [(GlcNAc)2, N,N′-diacetylchitobiose] was run?
The Kd was 190 nM.

What about the Kd [2] of the same molecule?
Its Kd is 173 nM.

With CC(=O)N[C@H]1[C@H](O[C@H]2[C@H](O)[C@@H](NC(C)=O)C(O)O[C@@H]2CO)O[C@H](CO)[C@@H](O[C@@H]2O[C@H](CO)[C@@H](O)[C@H](O)[C@H]2NC(C)=O)[C@@H]1O (stereo partly shown) [(GlcNAc)3, N,N′,N′′-triacetylchitotoriose] as the molecule, how does the Kd [3] read?
Its Kd is 2970 nM.

What about the Kd [4] of the same molecule?
The Kd was 1120 nM.
